The text below walks through data of patent publication US20160157482A1, “Antimicrobial Compositions Containing Carvacrol and Thymol” (Kemin Industries, Inc., priority 2013, published 2016).

Where two headings read alike, the source gives them in different places.

The test system of assay [1] is Salmonella Enteritidis, ATCC 13076. Put plainly: Microtiter plate assay, growth inhibition. The format is cell-based. The conditions noted are these: Salmonella enterica, read-out: level needed to inhibit the growth (MIC). The method, then: (§1) Stock cultures of Escherichia coli 413-1, ATCC 25922, Salmonella Enteritidis, ATCC 13076, Bacillus subtilis PB6 (Kemin Industries) and Lactobacillus johnsonii D115 (Kemin Industries) were cultured from agar plates held at 4° C. and inoculated into tubes of either Tryptic Soy Broth (TSB) or de Man, Rogosa and Sharpe (MRS) broth. The bacteria were incubated aerobically or anaerobically as appropriate at 37° C. for 20-22 h. All microbial cultures used in this work are strains maintained in an in-house culture collection.
(§2) Stock solutions of 1000 ppm each of carvacrol and thymol standards were prepared in sterile TSB to which 0.1% agar was added for stabilization of the oil:water emulsion (Rasooli et al., 2007; Burt, S. and R. Reinders. 2003. Antibacterial activity of selected plant essential oils against Escherichia coli O157:H7. Letters Appl. Microbiol. 36:162-167). Subsequent dilutions and/or combinations of the standard stock solutions were prepared in TSB to achieve the targeted inclusion level of each molecule.
(§3) Stock solutions of 1000 ppm were made of each of the HC and HT extracted oils in sterile TSB or MRS broth to which 0.1% agar was added. Subsequent dilutions and/or combinations of the extracted oil stock solutions were prepared in TSB or MRS to achieve the targeted inclusion level of each molecule.
(§4) The efficacy of carvacrol and thymol in the inhibition of microbial growth was evaluated in a microtiter plate assay measuring the optical density at 620 nm using an Optimax microtiter plate reader (Molecular Devices, Sunnyvale, Calif.). Plates were read kinetically (aerobic organisms) or endpoint (anaerobic organisms) over 20-24 h while maintaining temperature at 35° C. All results reflect the average optical density measurements of four microtiter wells. A 100 uL aliquot of a test organism (1.0E+06 cfu/mL) in sterile saline and a 100 μL aliquot of experimental treatment were dispensed into individual microtiter plate wells. Treatments prepared in TSB were used for E. coli, S. Enteritidis and PB6 while treatments prepared in MRS broth were used for L. johnsonii D115. Positive controls consisted of 100 μL of test organism in sterile saline and 100 μL of sterile TSB or MRS. Negative controls were made of 100 μL of sterile TSB or MRS and 100 μL of sterile saline (no organisms).
(§5) The inhibitory levels of carvacrol and thymol against selected microorganisms were evaluated through several formulation matrices designed to assess the individual molecules as well as combinations of the molecules. Initially, thirteen formulations were prepared according to the incomplete 4×4 matrix design in Table 1 using 0, 125, 250 and 500 ppm each of carvacrol standard and thymol standard to evaluate the inhibitory activity toward selected microorganisms. […]

The subject of assay [2] is Escherichia coli 413-1, ATCC 25922. The experiment in a line: Microtiter plate assay, growth inhibition. The format is cell-based. As to the method:
as §1, §2, §3, §4, §5

Take `Cc1ccc(C(C)C)cc1O` [carvacrol]: the minimum inhibitory concentration (MIC) in assay [1] lay within 125 to 250 µg/mL; in assay [2] (ATCC25922, read-out: level needed to inhibit the growth (MIC)), 125 to 250 µg/mL.
With `Cc1ccc(C(C)C)c(O)c1` [thymol], the MIC in assay [1] (microtiter plate, OD 620 nm, 20-24 h, 35° C.) lay in the range of 125 to 250 µg/mL; in assay [2] (ATCC25922, microtiter plate, OD 620 nm, 20-24 h, 35° C., read-out: level needed to inhibit the growth (MIC)) it was 125 to 250 µg/mL.
